Measured values as given in patent publication US9351974B2, “Substituted pteridinones for the treatment of cancer” (OSI Pharmaceuticals, LLC, priority 2011, dated 2016).
pIC50: −log10 of the molar value.

Biological target: T1, His-tagged full-length RSK2 (RPS6KA3) (Homo sapiens, UniProt P51812)
T1 construct: His-tagged full-length RSK2 (RPS6KA3, Invitrogen PV3323); His; purchased Invitrogen PV3323
Assay: RSK2 Omnia Assay for compound IC50 determination
Type: biochemical
Settings: ATP 15 μM, n=2, read-out: Mean RSK2 Biochem IC50
Summary of the method: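 Initial-rate slopes from continuous kinetic reads were fitted to a four-parameter equation for IC50 (n=2). Ki was then derived by Cheng-Prusoff assuming ATP-competitive inhibition. Reactions contained 15 μM ATP (Km 16.3 μM), 5 μM Omnia ST Peptide 6, and […] in 50 mM HEPES pH 7.5, 10 mM MgCl2, 1 mM DTT, 1% DMSO. Compounds spanned 11 threefold steps, […] final.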

T1 sequence (P51812 whole entry): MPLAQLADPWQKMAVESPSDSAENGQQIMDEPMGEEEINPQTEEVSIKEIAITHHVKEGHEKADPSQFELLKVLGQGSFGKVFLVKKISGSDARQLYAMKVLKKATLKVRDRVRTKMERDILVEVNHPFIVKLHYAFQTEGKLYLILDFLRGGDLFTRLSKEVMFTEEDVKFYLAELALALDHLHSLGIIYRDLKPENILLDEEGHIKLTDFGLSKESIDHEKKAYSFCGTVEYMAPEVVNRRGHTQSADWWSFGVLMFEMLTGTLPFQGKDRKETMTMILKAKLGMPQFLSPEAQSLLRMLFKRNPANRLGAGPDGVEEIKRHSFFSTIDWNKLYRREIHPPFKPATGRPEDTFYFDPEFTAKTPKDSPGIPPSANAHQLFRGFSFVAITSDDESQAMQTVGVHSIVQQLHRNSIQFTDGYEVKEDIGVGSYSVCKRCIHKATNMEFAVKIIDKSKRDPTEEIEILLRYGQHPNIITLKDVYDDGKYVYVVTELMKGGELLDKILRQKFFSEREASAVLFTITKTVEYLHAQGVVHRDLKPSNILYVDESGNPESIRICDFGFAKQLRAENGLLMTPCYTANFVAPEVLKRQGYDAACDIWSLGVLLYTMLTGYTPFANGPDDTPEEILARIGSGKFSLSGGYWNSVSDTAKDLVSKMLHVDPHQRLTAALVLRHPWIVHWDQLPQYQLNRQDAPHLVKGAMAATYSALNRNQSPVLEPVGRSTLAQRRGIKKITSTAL

pIC50	SMILES
≥ 7.00	C[C@@H]1C(=O)N(c2csc(C(=O)O)c2)c2cnc(Nc3ccc4[nH]ncc4c3)nc2N1C1CCCCC1 [compound 124, 4-[(7R)-8-cyclohexyl-2-(1H-indazol-5-ylamino)-7-methyl-6-oxo-7,8-dihydropteridin-5(6H)-yl]thiophene-2-carboxylic acid]
≥ 7.00	C[C@@H]1C(=O)N(c2cccc(C#N)c2)c2cnc(Nc3cc(F)c(O)c(F)c3)nc2N1[C@H]1CC[C@H](C(F)(F)F)CC1 [compound 259, 3-[(7R)-2-[(3,5-difluoro-4-hydroxyphenyl)amino]-7-methyl-6-oxo-8-[trans-4-(trifluoromethyl)cyclohexyl]-7,8-dihydropteridin-5(6H)-yl]benzonitrile]
≥ 7.00	C[C@@H]1C(=O)N(c2ccc(Cl)cc2)c2cnc(Nc3ccc4[nH]ncc4c3)nc2N1C1CCCCC1 [Example 21, (7R)-5-(4-chlorophenyl)-8-cyclohexyl-2-(1H-indazol-5-ylamino)-7-methyl-7,8-dihydropteridin-6(5H)-one]
≥ 7.00	C[C@@H]1C(=O)N(c2ccn(C)c(=O)c2)c2cnc(Nc3cc(F)c4[nH]ncc4c3)nc2N1C1CCCCC1 [compound 176, (7R)-8-cyclohexyl-2-[(7-fluoro-1H-indazol-5-yl)amino]-7-methyl-5-(1-methyl-2-oxo-1,2-dihydropyridin-4-yl)-7,8-dihydropteridin-6(5H)-one]
≥ 7.00	COc1ccc(N2C(=O)[C@@H](C)N(C3CCCCC3)c3nc(Nc4ccc5[nH]ncc5c4)ncc32)cc1C#N [compound 104, 5-[(7R)-8-cyclohexyl-2-(1H-indazol-5-ylamino)-7-methyl-6-oxo-7,8-dihydropteridin-5(6H)-yl]-2-methoxybenzonitrile]
6.00 to 7.00	C[C@@H]1C(=O)N(c2cccc(C#N)c2)c2cnc(Nc3ccc4[nH]nc(C#N)c4c3)nc2N1C1CCCCC1 [compound 157, 5-{[(7R)-5-(3-cyanophenyl)-8-cyclohexyl-7-methyl-6-oxo-5,6,7,8-tetrahydropteridin-2-yl]amino}-1H-indazole-3-carbonitrile]
≥ 7.00	COc1ccc(N2C(=O)[C@@H](C)N([C@H]3CC[C@@H](OC)CC3)c3nc(Nc4cc(F)c5[nH]ncc5c4)ncc32)cc1OC [compound 226, (7R)-5-(3,4-dimethoxyphenyl)-2-[(7-fluoro-1H-indazol-5-yl)amino]-8-(cis-4-methoxycyclohexyl)-7-methyl-7,8-dihydropteridin-6(5H)-one]
≥ 7.00	CC1C(=O)N(c2ccccc2)c2cnc(Nc3ccc4c(c3)CC(=O)N4)nc2N1C1CCCC1 (centres unmarked) [Example 65, 8-cyclopentyl-7-methyl-2-[(2-oxo-2,3-dihydro-1H-indol-5-yl)amino]-5-phenyl-7,8-dihydropteridin-6(5H)-one]
≥ 7.00	C[C@@H]1C(=O)N(c2cccc(F)c2)c2cnc(Nc3ccc4[nH]ncc4c3)nc2N1C1CCCCC1 [Example 25, (7R)-8-cyclohexyl-5-(3-fluorophenyl)-2-(1H-indazol-5-ylamino)-7-methyl-7,8-dihydropteridin-6(5H)-one]
≥ 7.00	COc1ccc(N2C(=O)[C@@H](C)N(CCC(C)C)c3nc(Nc4cc(F)c5[nH]c(=O)oc5c4)ncc32)cc1OC [Example 88, (7R)-5-(3,4-dimethoxyphenyl)-2-[(4-fluoro-2-oxo-2,3-dihydro-1,3-benzoxazol-6-yl)amino]-7-methyl-8-(3-methylbutyl)-7,8-dihydropteridin-6(5H)-one]

Second part, the compound before the results:

SMILES	pIC50
C[C@@H]1C(=O)N(c2cccnc2)c2cnc(Nc3cc(F)c(O)c(F)c3)nc2N1C1CCCCC1 [compound 160, (7R)-8-cyclohexyl-2-[(3,5-difluoro-4-hydroxyphenyl)amino]-7-methyl-5-(pyridin-3-yl)-7,8-dihydropteridin-(5H)-one.]	≥ 7.00
C[C@@H]1C(=O)N(c2cccnc2)c2cnc(Nc3cc(F)c4[nH]ncc4c3)nc2N1C1CCCCC1 [compound 135, (7R)-8-cyclohexyl-2-[(7-fluoro-1H-indazol-5-yl)amino]-7-methyl-5-(pyridin-3-yl)-7,8-dihydropteridin-6(5H)-one]	≥ 7.00
CC(C)CCN1c2nc(Nc3ccc4c(c3)CC(=O)N4)ncc2N(c2ccccc2)C(=O)C1C (centres unmarked) [Example 3, 7-methyl-8-(3-methylbutyl)-2-[(2-oxo-2,3-dihydro-1H-indol-5-yl)amino]-5-phenyl-7,8-dihydropteridin-6(5H)-one]	≥ 7.00
C[C@@H]1C(=O)N(c2ccc(N3CCCC3)nc2)c2cnc(Nc3cc(F)c4[nH]ncc4c3)nc2N1C1CCC(C)(C)CC1 [Example 214, (7R)-8-(4,4-dimethylcyclohexyl)-2-[(7-fluoro-1H-indazol-5-yl)amino]-7-methyl-5-[6-(pyrrolidin-1-yl)pyridin-3-yl]-7,8-dihydropteridin-6(5H)-one]	≥ 7.00
CC[C@@H]1C(=O)N(c2ccc(N3CCOCC3)nc2)c2cnc(Nc3cc(F)c4[nH]ncc4c3)nc2N1C1CCCCC1 [compound 292, (7R)-8-cyclohexyl-7-ethyl-2-[(7-fluoro-1H-indazol-5-yl)amino]-5-[6-(morpholin-4-yl)pyridin-3-yl]-7,8-dihydropteridin-6(5H)-one]	≥ 7.00
CC(C)CCN1c2cc(Nc3ccc4[nH]ncc4c3)ncc2N(c2ccccc2)C(=O)C1C (centres unmarked) [Example 310, 7-(1H-indazol-5-ylamino)-2-methyl-1-(3-methylbutyl)-4-phenyl-1,4-dihydropyrido[3,4-b]pyrazin-3(2H)-one]	6.00 to 7.00
CC(C)CCN1c2nc(Nc3cc(F)c(O)c(F)c3)ncc2N(c2ccccc2)C(=O)C1C (centres unmarked) [Example 2, 2-[(3,5-difluoro-4-hydroxyphenyl)amino]-7-methyl-8-(3-methylbutyl)-5-phenyl-7,8-dihydropteridin-6(5H)-one]	≥ 7.00
[2H]C1([2H])C(N2c3nc(Nc4cc(F)c5[nH]ncc5c4)ncc3N(c3cccnc3)C(=O)[C@H]2C)C([2H])([2H])C([2H])([2H])C([2H])([2H])C1([2H])[2H] [compound 301, (7R)-8-[(2,2,3,3,4,4,5,5,6,6-2H10)cyclohexyl]-2-[(7-fluoro-1H-indazol-5-yl)amino]-7-methyl-5-(pyridin-3-yl)-7,8-dihydropteridin-6(5H)-one]	≥ 7.00
C[C@@H]1C(=O)N(c2ccccc2)c2cnc(Nc3ccc4c(c3)CC(=O)N4)nc2N1C1CCCC1 [Example 68, (7R)-8-cyclopentyl-7-methyl-2-[(2-oxo-2,3-dihydro-1H-indol-5-yl)amino]-5-phenyl-7,8-dihydropteridin-6(5H)-one]	≥ 7.00
CC(C)CCN1c2nc(Nc3ccc4[nH]ncc4c3)ncc2N(c2ccccc2)C(=O)C1(C)C [Example 70, 2-(1H-indazol-5-ylamino)-7,7-dimethyl-8-(3-methylbutyl)-5-phenyl-7,8-dihydropteridin-6(5H)-one]	≥ 7.00
C[C@@H]1C(=O)N(c2cccc(N(C)C)c2)c2cnc(Nc3ccc4[nH]ncc4c3)nc2N1C1CCCCC1 [Example 44, (7R)-8-cyclohexyl-5-[3-(dimethylamino)phenyl]-2-(1H-indazol-5-ylamino)-7-methyl-7,8-dihydropteridin-6(5H)-one]	≥ 7.00
COc1ccc(N2C(=O)[C@@H](C)N(C3CCCCC3)c3nc(Nc4cc(F)c5[nH]ncc5c4)ncc32)cc1C#N [compound 136, 5-[(7R)-8-cyclohexyl-2-[(7-fluoro-1H-indazol-5-yl)amino]-7-methyl-6-oxo-7,8-dihydropteridin-5(6H)-yl]-2-methoxybenzonitrile]	≥ 7.00
C[C@@H]1C(=O)N(c2ccc(N3CCCC3)nc2)c2cnc(Nc3cc(F)c4[nH]ncc4c3)nc2N1C1CCCCC1 [compound 141, (7R)-8-cyclohexyl-2-[(7-fluoro-1H-indazol-5-yl)amino]-7-methyl-5-[6-(pyrrolidin-1-yl)pyridin-3-yl]-7,8-dihydropteridin-6(5H)-one]	≥ 7.00
Cc1cc(Nc2ncc3c(n2)N(C2CCCCC2)[C@H](C)C(=O)N3c2cccc(C#N)c2)cc2cn[nH]c12 [Example 59, 3-[(7R)-8-cyclohexyl-7-methyl-2-[(7-methyl-1H-indazol-5-yl)amino]-6-oxo-7,8-dihydropteridin-5(6H)-yl]benzonitrile]	6.00 to 7.00
C[C@@H]1C(=O)N(c2cccnc2)c2cnc(Nc3cc(F)c4[nH]ncc4c3)nc2N1C1CCC(C)(C)CC1 [Example 208, (7R)-8-(4,4-dimethylcyclohexyl)-2-[(7-fluoro-1H-indazol-5-yl)amino]-7-methyl-5-(pyridin-3-yl)-7,8-dihydropteridin-6(5H)-one]	≥ 7.00
C[C@H]1C(=O)N(c2ccccc2)c2cnc(Nc3ccc4[nH]ncc4c3)nc2N1C1CCCC1 [Example 67, (7S)-8-cyclopentyl-2-(1H-indazol-5-ylamino)-7-methyl-5-phenyl-7,8-dihydropteridin-6(5H)-one]	6.00 to 7.00
C[C@@H]1C(=O)N(c2ccc(C#N)cc2)c2cnc(Nc3ccc4[nH]ncc4c3)nc2N1C1CCCCC1 [Example 19, 4-[(7R)-8-cyclohexyl-2-(1H-indazol-5-ylamino)-7-methyl-6-oxo-7,8-dihydropteridin-5(6H)-yl]benzonitrile]	≥ 7.00
COc1ccc(N2C(=O)[C@@H](C)N([C@H]3CC[C@@H](C)CC3)c3nc(Nc4cc(F)c5[nH]ncc5c4)ncc32)cc1OC [compound 238, (7R)-5-(3,4-dimethoxyphenyl)-2-[(7-fluoro-1H-indazol-5-yl)amino]-7-methyl-8-(cis-4-methylcyclohexyl)-7,8-dihydropteridin-6(5H)-one]	≥ 7.00
CNS(=O)(=O)c1cccc(N2C(=O)[C@@H](C)N(C3CCCCC3)c3nc(Nc4ccc5[nH]ncc5c4)ncc32)c1 [Example 42, 3-[(7R)-8-cyclohexyl-2-(1H-indazol-5-ylamino)-7-methyl-6-oxo-7,8-dihydropteridin-5(6H)-yl]-N-methylbenzenesulfonamide]	≥ 7.00
